Like-named read-outs stand apart in the source and are kept apart here.
Legend:
[1] = system: KP4 pancreatic cancer cells; experiment: Cell proliferation assay (crystal violet), EC50 determination; assay type: cell-based; details: for impact on the growth of cancer cells: KP4 and PANC1
Method: (§1) Materials and methods for in vitro experiments: Absorbance measurements for EC50 determination were performed using a SpectraMax 190 microplates reader from Molecular Devices. […] Statistical analyses were also performed using the PRISM software, using a one-way ANOVA test. Protein concentrations were determined using a Nanodrop 2000c spectrophotometer from Thermo Scientific (Waltham, MA, USA). A ChemiDoc MP Imaging System from BIO-RAD (Hercules, CA, USA) was used for imaging and analyzing Western blots. Resulting data were treated with Image Lab software (version 6.1).
(§2) Cells were seeded at a density of 1 × 10^3 cells per well for KP4 and PANC1, 4 × 10^3 for IMR90, and 2 × 10^3 for hTERT-HPNE in 96 well plates one day prior to treatments with vehicle and compounds for 72 h. The culture medium was removed. Cells were washed twice with cold PBS, and 1% glutaraldehyde was added to the wells for fixation for 10 min. Cells were then washed with water, stained with 0.2% crystal violet for 30 min at room temperature, washed with water, and then dried. The adherent crystal violet was solubilized in 10% acetic acid and the absorbance was read at a wavelength of 590 nm for the calculation of the cell viability.

[2] = system: hTERT-HPNE (immortalized pancreatic cells, healthy cells); experiment: as above; assay type: cell-based, Human; details: for EC50: Homo sapiens, 72 h of treatment, mean ± SD; for effect on healthy cell line hTERT-HPNE (toxicity): at the concentrations examined
Method: as §1
Cell Lines: Human pancreatic normal epithelial (HPNE hTERT) cells were obtained from Dr. M. Ouellette (University of Nebraska Medical Center). IMR90 was obtained from Coriell Institute (I90-79). PANC1 was obtained from ATCC and KP4 from the Massachusetts General Hospital Center for Molecular Therapeutics (CMT), courtesy of Dr. Bardeesy. […] All cell lines tested negative for mycoplasma contamination. No unpublished de novo cell lines were used.
as §2

[3] = system: OXPHOS proteins (vATP5A, UQCR2, SDHB, COXII, NDUFB8) in KP4 cells; experiment: Immunoblot of OXPHOS mitochondrial respiratory chain proteins; assay type: cell-based; details: KP4, 24 h of treatment
Method: (§3) Immunoblot analysis: For the protein degradation assay, cells were seeded at a density of 1 × 10^5 cells per well in 6-well plates overnight, and then treated with vehicle and compounds for 24 h. The culture medium was removed. Cells were washed twice with cold PBS and lysed with LAEMMLI 2X (BIO-RAD, Hercules, CA, USA, 4% SDS, 20% glycerol, 0.125 M Tris-HCl (pH 6.8)). Equal amounts of protein were separated via sodium dodecyl sulfate-polyacrylamide gel electrophoresis (SDS-PAGE) and transferred to nitrocellulose membranes. […] Membranes were washed again with TBST and incubated with the primary antibody overnight at 4 °C. After being washed with TBST three times, the membranes were incubated with the secondary antibody for 1 h. After being washed with TBST three times, membranes were visualized using chemiluminescence using a Western Lightning™ Plus Chemiluminescence Reagent.

[4] = system: IMR90 (lung fibroblasts, healthy cells); experiment: Cell proliferation assay (crystal violet), EC50 determination; assay type: cell-based; details: for EC50: Homo sapiens, IMR-90, 72 h of treatment, mean ± SD; for effect on healthy cell line IMR90 (toxicity): at the concentrations examined
Method: (§4) Materials and methods for in vitro experiments: Absorbance measurements for EC50 determination were performed using a SpectraMax 190 microplates reader from Molecular Devices. Resulting data were analyzed with PRISM software (version 10.3.0) using curve fitting with non-linear regression (log(inhibitor) vs. response—variable slope (four parameters)). Statistical analyses were also performed using the PRISM software, using a one-way ANOVA test. Protein concentrations were determined using a Nanodrop 2000c spectrophotometer from Thermo Scientific (Waltham, MA, USA). A ChemiDoc MP Imaging System from BIO-RAD (Hercules, CA, USA) was used for imaging and analyzing Western blots. Resulting data were treated with Image Lab software (version 6.1).
as §2

[5] = system: PANC1 pancreatic cancer cells; experiment: as above; assay type: cell-based; details: Homo sapiens, PANC-1
Method: as §4, §2

[6] = system: mitochondria (TOMM20) in KP4 cells; experiment: Immunofluorescence assay of TOMM20 (mitochondrial morphology); assay type: cell-based; details: KP4, 24 h; compound 6 200 µM, metformin 2 mM
Method: Immunofluorescence assay: KP4 cells were seeded at a density of 8 × 10^4 cells per well on top of microscope cover glasses in 6-well plates overnight. They were then treated with vehicle or the studied compounds for 24 h. The culture medium was removed, and cells were washed three times with cold PBS. A solution of 4% paraformaldehyde was added into the wells for fixation for 10 min. Cells were washed again three times with 0.1 M glycine in PBS, then incubated with a solution of 3% BSA and 0.2% […] in PBS for 5 min at room temperature. Cells were washed again three times with a solution of 3% BSA in PBS, then incubated overnight with the primary antibody TOMM20 (1:100 in PBS, pH 7.4, 3% BSA). Cells were washed three times with 3% BSA in PBS and incubated for 1 h with the secondary antibody AF488 (1:2000 in PBS, pH 7.4, 3% BSA). Cells were finally washed three times with 3% BSA in PBS. A drop of mounting medium for fluorescence with DAPI was used to adhere cover glasses to microscope slides.
Antibodies: • I. Tom20 Antibody (F-10) #sc-17764 (Santa Cruz Biotechnology, Dallas, TX, USA): 1:100, 3% BSA in 1X PBS; • II. Goat anti-Mouse IgG (H + L) Highly Cross-Adsorbed Secondary Antibody, Alexa Fluor™ 488 #A-11029 (ThermoFisher/Invitrogen, Waltham, MA, USA): 1:2000, 3% BSA in 1X PBS.

[7] = system: mitochondria in KP4 cells; experiment: Cell fluorescence assay: mitochondrial morphology by MitoTracker Deep Red FM confocal microscopy; assay type: cell-based; details: for mitochondrial morphology (MTDR): metformin 2 mM, 7 1 mM, 6 50-200 µM
Method: Cell fluorescence assay: KP4 cells were seeded at a density of 8 × 10^4 cells per well on top of microscope cover glasses in 6-well plates overnight. They were then treated with vehicle or the studied compounds for 24 h. The culture medium was refreshed with a solution of the MitoTracker® Deep Red FM (100 nM in DMEM). After 30 min at 37 °C, the medium was removed. Cells were washed twice with PBS and a solution of 4% paraformaldehyde was added into the wells for fixation for 10 min. Cells were washed again three times with 0.1 M glycine in PBS. A drop of mounting medium for fluorescence with DAPI was used to adhere cover glasses to microscope slides.

LC3-II in KP4 cells = experiment: Immunoblot of LC3-I and LC3-II protein levels (autophagy); assay type: cell-based; details: KP4, 24 h; for LC3-II level: relative to DMSO, metformin 200 µM and 2 mM, 7 200 µM, 6 100 and 200 µM
Method: as §3, with “Cells were washed twice with cold PBS and lysed with LAEMMLI 2X (BIO-RAD, Hercules, CA, USA, 4% SDS, 20% glycerol, 0.125 M Tris-HCl (pH 6.8)).” left out

[8] = Homo sapiens, PANC-1, KP4 and PANC1, text summary, read-out: median effective concentration / concentration of toxic activity on pancreatic cancer cell lines
[9] = Pancreatic cancer cell, 72 h of treatment, mean ± SD, read-out: EC50 KP4
[10] = Pancreatic cancer cell, in Figure 2, read-out: EC50 KP4 (Figure 2)
[11] = 72 h of treatment, mean ± SD, read-out: EC50 PANC1

Compound | EC50 [1, 8] | EC50 [1, 9] | EC50 [1, 10] | EC50 [2] | levels of OXPHOS mitochondrial respiratory chain proteins [3] | EC50 [4] | effect on healthy cell line IMR90 (toxicity) [4] | EC50 [5, 11] | mitochondrial morphology (TOMM20 immunofluorescence) [6] | selectivity index (SI) ([1]; cancer cells over healthy cells, 72 h of treatment) | effect on healthy cell line hTERT-HPNE (toxicity) [2] | cells displaying a fragmented or punctate mitochondrial network ([7]; KP4, 100 µM, 24 h of treatment, MTDR) | cells maintaining a filamentous network ([7]; KP4, 200 µM (doubling of 100 µM), 24 h, MTDR) | MTDR fluorescence intensity ([7]; KP4, 24 h) | mitochondrial morphology (MTDR) ([7]; KP4, 24 h) | EC50 ([5]; in Figure 2, read-out: EC50 PANC1 (Figure 2)) | effect on lysosomal degradation of LC3B (LC3-II with and without chloroquine) (LC3-II in KP4 cells; in the presence of chloroquine) | LC3-II level (LC3-II in KP4 cells) | impact on the growth of cancer cells [1]
CN(C)C(=N)N=C(N)N [Met., Metformin, reference compound] | 1000 to 4000 µM | 1490 ± 550 µM | 2210 µM | > 20000 µM | did not appear to affect the levels | > 20000 µM | no noticeable effect | 3130 ± 1410 µM | mild fragmentation of the network | – | – | – | – | – | – | – | – | – | –
CC(=O)NC(CSc1nc2c(=O)[nH]c(N)nc2n1Cc1ccc(F)cc1)C(=O)NCCCCCCNC(=N)NC(=N)N.O=CO (stereo not drawn) [compound 6] | ~100 µM | 100 ± 30 µM | 74 µM | > 1000 µM | decrease in complex I and complex IV mitochondrial respiratory chain proteins | > 1000 µM | no adverse impact | 150 ± 30 µM | majority of cells assumed a punctate appearance | >10 | no adverse impact | more than 50% | < 10% | decrease in fluorescence intensity | punctate configuration | 103 µM | does not affect the degradation of LC3B | mild increase in LC3-II levels | –
CCCCCCNC(=O)C(CSc1nc2c(=O)[nH]c(N)nc2n1Cc1ccc(F)cc1)NC(C)=O (stereo not drawn) [compound 7] | – | > 1000 µM | – | 110 ± 20 µM | no effect on OXPHOS proteins | > 1000 µM | without exhibiting toxicity | > 1000 µM | – | – | appeared to affect | – | – | – | predominantly formed a filamentous network | – | – | elevate LC3-II levels | no discernible impact
CC(=O)N[C@@H](CSc1nc2c(=O)[nH]c(N)nc2n1Cc1ccc(F)cc1)C(=O)O [compound 5] | – | > 5000 µM | – | 3510 ± 1450 µM | – | > 5000 µM | without exhibiting toxicity | > 5000 µM | – | – | appeared to affect | – | – | – | – | – | – | – | no discernible impact
CCN(CC)CCCC(C)Nc1ccnc2cc(Cl)ccc12 (stereo not drawn) [chloroquine, reference compound] | – | – | – | – | – | – | – | – | – | – | – | – | – | – | – | – | – | increase in LC3-II levels | –

— PMC11357661, “Gaining Insight into Mitochondrial Targeting: AUTAC-Biguanide as an Anticancer Agent” (Molecules, 2024)
